Columns and labels:
[1] = target: T1, PPARγ (Homo sapiens, UniProt P37231); test: Evaluation of PPARγ activating action (luciferase reporter in PPARγ:RXRα:4ERPP/CHO-K1 cells); assay type: cell-based; settings: CHO-K1, 24 h; test compound 10^−6 M; luciferase activity relative to control compound X (1 μM) = 100%, non-administration group = 0%; read-out: PPARγ activating action (activation % (10^−6 M))
T1 construct: expressed in transfected cells; host or cells: CHO-K1
T1 sequence (P37231 1-477 isoform P37231-2): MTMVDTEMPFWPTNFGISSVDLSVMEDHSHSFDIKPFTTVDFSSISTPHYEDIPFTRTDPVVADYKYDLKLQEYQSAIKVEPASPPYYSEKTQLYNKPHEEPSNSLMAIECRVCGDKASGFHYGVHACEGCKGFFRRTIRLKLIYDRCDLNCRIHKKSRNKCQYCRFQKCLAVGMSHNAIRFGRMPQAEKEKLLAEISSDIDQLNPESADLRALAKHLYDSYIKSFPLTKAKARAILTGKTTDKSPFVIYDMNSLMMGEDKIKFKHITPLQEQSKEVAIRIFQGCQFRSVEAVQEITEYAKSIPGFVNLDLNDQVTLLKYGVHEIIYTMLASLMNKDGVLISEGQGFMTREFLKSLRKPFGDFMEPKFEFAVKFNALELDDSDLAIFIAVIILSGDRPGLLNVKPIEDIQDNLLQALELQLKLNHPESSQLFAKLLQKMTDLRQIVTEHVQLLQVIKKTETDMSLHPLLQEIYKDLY
T1 sequence (P19793 1-462 partner): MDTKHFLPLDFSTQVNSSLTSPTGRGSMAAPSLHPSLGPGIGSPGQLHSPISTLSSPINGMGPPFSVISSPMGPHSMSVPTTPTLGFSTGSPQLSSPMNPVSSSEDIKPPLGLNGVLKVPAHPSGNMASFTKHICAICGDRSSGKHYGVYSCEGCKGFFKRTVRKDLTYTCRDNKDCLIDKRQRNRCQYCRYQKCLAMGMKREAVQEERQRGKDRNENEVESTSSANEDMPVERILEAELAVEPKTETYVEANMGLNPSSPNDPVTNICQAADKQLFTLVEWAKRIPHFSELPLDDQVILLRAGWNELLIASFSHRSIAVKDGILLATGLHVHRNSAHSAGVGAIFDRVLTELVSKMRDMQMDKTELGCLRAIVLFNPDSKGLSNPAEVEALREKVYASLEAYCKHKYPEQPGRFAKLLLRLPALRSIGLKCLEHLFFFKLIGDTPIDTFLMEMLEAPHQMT
Description: PPARγ:RXRα:4ERPP/CHO-K1 cells obtained in the following Reference Example 5 were cultured in F12 medium [manufactured by INVITROGEN, USA] containing 10% fetal bovine serum [manufactured by MOREGATE, Australia], seeded in a 96-well half area white plate [manufactured by Corning Coster Corporation, USA] at the density of 5×10^3 cells/well and cultured in a CO2 gas incubator at 37° C. overnight.
Then the medium was removed from the 96-well half area white plate, 45 μl of Ham's F12 medium containing 0.1% fatty acid-free bovine serum albumin (BSA) and 5 μl of test compound were added, and the cells were cultured in a CO2 gas incubator at 37° C. for 1 day. The medium was removed and 20 μl of PicaGene 7.5 [manufactured by TOYO INK MFG. CO., LTD.,.Japan] diluted 2-fold with HBSS (HANKS' BALANCED SALT SOLUTION) [manufactured by BIO WHITTAKER, USA] was added. After stirring, the luciferase activity was determined using 1420 ARVO Multilabel Counter [manufactured by PerkinElmer, USA].
The percent (%) was calculated from the luciferase activity of each test compound when the luciferase activity of the control compound (compound X: 5-[3-(4-{[2-(2-furyl)-5-methyl-1,3-oxazol-4-yl]methoxy}-3-methoxyphenyl)propyl]-1,3-oxazolidine-2,4-dione) (1 μM) was 100% and that of the test compound non-administration group was 0%.
A CHO-K1 cell cultured in a 150 cm^2 cell culture flask [manufactured by Corning Costar Corporation, USA] containing Ham's F12 medium [manufactured by INVITROGEN, USA] supplemented with 10% fetal bovine serum [manufactured by INVITROGEN, USA] was scraped by treating with 0.5 g/L trypsin-0.2 g/L EDTA (ethylenediaminetetraacetic acid) [manufactured by Life Technologies, Inc., USA], and then the cell was washed with PBS (Phosphate-buffered saline) [manufactured by INVITROGEN, USA], centrifuged (1000 rpm, 5 minutes) and suspended in PBS. Subsequently, DNA was introduced into the cell under the conditions shown below using GENE PULSER [manufactured by Bio-Rad Laboratories, USA].
Namely, to a cuvette having a 0.4 cm gap were added 8×10^6 cells and 10 μg of plasmid pVgRXR2-hPPARγ obtained in Reference Example 4 and 10 μg of reporter plasmid pGL3-4ERPP-TK neo obtained in Reference Example 3, which was subjected to electroporation at the voltage of 0.25 kV under the capacitance of 960 μF. Subsequently, the cell was transferred into a F12 medium containing 10% fetal bovine serum and cultured for 24 hours, and then the cell was scraped again and centrifuged, and then suspended in Ham's F12 medium containing 10% fetal bovine serum supplemented with 500 μg/ml of Geneticin [manufactured by INVITROGEN, USA] and 250 μg/ml of Zeocin [manufactured by INVITROGEN, USA]. The obtained suspension was diluted to the density of 10^4 cells/ml and inoculated in a 96-well plate [manufactured by Corning Costar Corporation, USA], which was cultured in a CO2 gas incubator at 37° C., whereby obtaining a Geneticin- and Zeocin-resistant transformant.
Subsequently, after the transformant cell line thus obtained was cultured in a 24-well plate [manufactured by Corning Costar Corporation, USA], a cell line in which the luciferase was expressed and induced, i.e., PPARγ:RXRα:4ERPP/CHO-K1 cell was selected by the addition of 10 μM pioglitazone hydrochloride.

[2] = target: T2, human AT1 receptor (Homo sapiens, UniProt P30556); test: Binding assay using human AT1 receptor-expressing CHO-K1 cell membrane fraction ([125I]-angiotensin II); settings: 22.5 pM [125I]-angiotensin II, 9 μg AT1 membrane, 1 hr room temperature; read-out: AT1 receptor binding inhibitory action (IC50 (nM))
T2 construct: expressed in transfected cells; host or cells: CHO-K1
T2 sequence (P30556 1-359): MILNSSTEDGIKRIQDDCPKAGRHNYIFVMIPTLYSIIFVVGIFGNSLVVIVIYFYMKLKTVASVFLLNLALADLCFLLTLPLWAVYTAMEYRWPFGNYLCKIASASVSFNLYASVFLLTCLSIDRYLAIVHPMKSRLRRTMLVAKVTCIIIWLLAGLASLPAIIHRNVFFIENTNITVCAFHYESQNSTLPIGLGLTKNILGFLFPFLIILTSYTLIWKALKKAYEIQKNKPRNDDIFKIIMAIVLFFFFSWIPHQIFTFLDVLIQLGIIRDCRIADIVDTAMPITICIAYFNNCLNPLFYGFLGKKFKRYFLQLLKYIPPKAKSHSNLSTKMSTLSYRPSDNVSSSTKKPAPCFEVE
Description: The membrane fraction for human AT1 receptor binding assay was prepared as follows. CHO-K1 cell capable of stable expression of human AT1 receptor was cultured, recovered, suspended in homogenize buffer (10 mM NaHCO3 (pH 7.4), 5 mM EDTA, 1×Complete EDTA free) [manufactured by Roche, Switzerland], and homogenized. The homogenate was centrifuged at low-speed (900×g, 10 min, 4° C.), and the supernatant was recovered and ultracentrifuged (90,000×g, 1 hr, 4° C.). The supernatant was discarded, and the pellets were resuspended in resuspension buffer (50 mM Tris (pH 7.4), 1 mM EDTA, 1×Complete EDTA free).
The binding assay was performed in the presence of 22.5 pM [^125I]-angiotensin II [manufactured by PerkinElmer, USA], 9 μg of AT1 membrane and test compound in 100 μL (total reaction volume) of reaction buffer (50 mM Tris (pH 7.4), 10 mM MgCl2 supplemented or not supplemented with 0.3 mg/mL fatty acid-free bovine serum albumin [manufactured by Wako Pure Chemical Industries, Ltd., Japan]). The reaction mixture was incubated in 96 well polypropylene plate for 1 hr at room temperature, and the reaction was quenched by rapid filtration (96 well cell harvester) through a GF/C filter treated with wash buffer (50 mM Tris (pH 7.4)). Subsequently, the filter was washed 5 times with 0.3 mL of ice-cooled wash buffer. The filter was air-dried, and [^125I]-angiotensin II binding radioactivity was assayed with Top Count scintillation counter. Total binding was measured in the presence of 1% DMSO and nonspecific binding was measured in the presence of 1 μM CV-11974. The binding data was analyzed by GraphPad Prism program and the IC50 value (compound concentration showing 50% of the maximum value of inhibition percent) of the test compound was calculated.

SMILES | activation at 1 µM [1] [%] | IC50 [2] [nM]
CCSc1nc(C)c(Cc2ccccc2)c(=O)n1Cc1ccc(-c2ccccc2-c2noc(=O)[nH]2)cc1 [Example 3, 5-benzyl-2-(ethylthio)-6-methyl-3-{[2′-(5-oxo-4,5-dihydro-1,2,4-oxadiazol-3-yl)biphenyl-4-yl]methyl}pyrimidin-4(3H)-one] | 57.1 | 2.5
CCOc1nc(C)c(Cc2ccccc2)c(=O)n1Cc1ccc(-c2ccccc2-c2noc(=O)[nH]2)cc1 [Example 4, 5-benzyl-2-ethoxy-6-methyl-3-{[2′-(5-oxo-4,5-dihydro-1,2,4-oxadiazol-3-yl)biphenyl-4-yl]methyl}pyrimidin-4(3H)-one] | 35.8 | 1.9
CCCc1nc(C)c(CC2CCCCO2)c(=O)n1Cc1ccc(-c2ccccc2-c2noc(=O)[nH]2)cc1 (centres unmarked) [Example 7, 6-methyl-3-{[2′-(5-oxo-4,5-dihydro-1,2,4-oxadiazol-3-yl)biphenyl-4-yl]methyl}-2-propyl-5-(tetrahydro-2H-pyran-2-ylmethyl)pyrimidin-4(3H)-one] | 42.6 | 1.4
CCCc1nc(C)c(-c2ccc(OC(C)C)cc2)c(=O)n1Cc1ccc(-c2ccccc2-c2noc(O)n2)cc1 [Example 28, 5-(4-isopropoxyphenyl)-6-methyl-3-{[2′-(5-oxo-4,5-dihydro-1,2,4-oxadiazol-3-yl)biphenyl-4-yl]methyl}-2-propylpyrimidin-4(3H)-one] | 16.2 | 1.6
CCCCc1nc(C)n(Cc2cccs2)c(=O)c1Cc1ccc(-c2ccccc2-c2noc(=O)[nH]2)cc1 [Example 32, 6-butyl-2-methyl-5-{[2′-(5-oxo-4,5-dihydro-1,2,4-oxadiazol-3-yl)biphenyl-4-yl]methyl}-3-(2-thienylmethyl)pyrimidin-4(3H)-5 one] | 55.6 | 1.3
CCCCc1nc(C)n(CC(=O)C(C)(C)C)c(=O)c1Cc1ccc(-c2ccccc2-c2noc(=O)[nH]2)cc1 [Example 37, 6-butyl-3-(3,3-dimethyl-2-oxobutyl)-2-methyl-5-{[2′-(5-oxo-4,5-dihydro-1,2,4-oxadiazol-3-yl)biphenyl-4-yl]methyl}pyrimidin-4(3H)-one] | 29.8 | 1.3

More lines, now with the values ahead:

activation at 1 µM [1] [%] | IC50 [2] [nM] | SMILES
61.2 | 1.5 | CCCCc1nc(C)n(CC23CC4CC(CC(C4)C2)C3)c(=O)c1Cc1ccc(-c2ccccc2-c2noc(=O)[nH]2)cc1 [Example 42, 3-(1-adamantylmethyl)-6-butyl-2-methyl-5-{[2′-(5-oxo-4,5-dihydro-1,2,4-oxadiazol-3-yl)biphenyl-4-yl]methyl}pyrimidin-4(3H)-one]
61.2 | 1.4 | CCCCc1nc(C)n(Cc2ccccc2)c(=O)c1Cc1ccc(-c2ccccc2-c2noc(=O)[nH]2)cc1 [Example 47, 3-benzyl-6-butyl-2-methyl-5-{[2′-(5-oxo-4,5-dihydro-1,2,4-oxadiazol-3-yl)biphenyl-4-yl]methyl}pyrimidin-4(3H) -one]
68.8 | 1.8 | CCCCc1nc(C)n(CC2CCCCC2)c(=O)c1Cc1ccc(-c2ccccc2-c2noc(=O)[nH]2)cc1 [Example 48, 6-butyl-3-(cyclohexylmethyl)-2-methyl-5-{[2′-(5-oxo-4,5-dihydro-1,2,4-oxadiazol-3-yl)biphenyl-4-yl]methyl}pyrimidin-4(3H)-one]
34.3 | 1.7 | CCCCc1nc(C)n(Cc2ccccn2)c(=O)c1Cc1ccc(-c2ccccc2-c2noc(=O)[nH]2)cc1 [Example 50, 6-butyl-2-methyl-5-{[2′-(5-oxo-4,5-dihydro-1,2,4-oxadiazol-3-yl)biphenyl-4-yl]methyl}-3-(pyridin-2-ylmethyl)pyrimidin-4(3H)-one]
19.6 | 1.5 | CCCCc1nc(COC)n(CC(C)(C)C)c(=O)c1Cc1ccc(-c2ccccc2-c2noc(=O)[nH]2)cc1 [Example 51, 6-butyl-3-(2,2-dimethylpropyl)-2-(methoxymethyl)-5-{[2′-(5-oxo-4,5-dihydro-1,2,4-oxadiazol-3-yl)biphenyl-4-yl]methyl}pyrimidin-4(3H)-one]
 | 2.1 | CCCc1nc(C(F)F)n(-c2ccc(OC)cc2)c(=O)c1Cc1ccc(-c2ccccc2-c2noc(=O)[nH]2)cc1 [Example 410]

From US20100056526A1, “HETEROMONOCYCLIC COMPOUND AND USE THEREOF” (Takeda Pharmaceutical Company Limited, priority 2006, published 2010)
